Data as given in the OPERA property sets (Mansouri et al. 2018).

In order of falling logP:
1. FC(F)(F)c1cccc(N2CCNCC2)c1  2.43
2. Cc1ccccc1N1CCNCC1  2.14
3. c1ccc2c(N3CCNCC3)nsc2c1  2.14
4. Clc1ccccc1N1CCNCC1  2.13
5. Clc1cccc(N2CCNCC2)c1  2.11
6. c1ccc2nc(N3CCNCC3)ccc2c1  2.04
7. Clc1ccc(N2CCNCC2)cc1  2.01
8. COc1ccccc1N1CCNCC1  1.67
9. Fc1ccc(N2CCNCC2)cc1  1.28
10. c1ccc(N2CCNCC2)cc1  1.1
11. Fc1ccnc(N2CCNCC2)n1  0.97
12. c1ccc(N2CCNCC2)nc1  0.74
13. c1csc(N2CCNCC2)n1  0.61
14. c1cnc(N2CCNCC2)nc1  0.49
